How the values were obtained:
[1] = Organic phase pH of polymer films monitored with chromoionophore II (UV-Vis); format: physicochemical; details: PVC films with 5 wt. % donor, PBS buffer; protonated 650 nm, deprotonated 514 nm
Source text: To determine, experimentally, if the pH within the film was changing with time, a lipophilic pH chromoionophore was incorporated into PVC films containing 5 wt. % of 2d, both in the presence and absence of KTpClPB. The intensity of the UV-Vis absorbances corresponding to the protonated (λmax=650 nm) and deprontonated (λmax=514 nm) peaks of the chromoionophore were monitored with time spectrophotometrically. […] This further supports the notion that as NO is being released from within the polymer phase, the unreacted diazeniumdiolate groups may require a buffering system to prevent the film from becoming too basic, which in turn may slow further diazeniumdiolate decomposition.
General Procedure for Deprotection to Form Diamine Copolymer (c). 35 mg of the copolymer (b) was dissolved in 2 mL of dichloromethane and then 200 μL of TFA (trifluoroacetic acid) was added dropwise. The solution was stirred at room temperature for about 3 hours. […] The data was recorded as a concentration of NO in PPB or PPM. The total amount of NO released (in moles) was determined by multiplying a constant (specific to each instrument, units of mol ppm^−1 s^−1) by the time interval that data was collected and the concentration. pH Experiments. […]

adult sheep = experiment: Coated VECTRA vascular access grafts implanted as arteriovenous grafts in sheep, 21 days; format: in vivo
Source text: Synthetic vascular access grafts (VECTRA™), a proprietary blend of segmented polyetherurethane and siloxane (20 cm in length and 5 mm in diameter), were coated with compound 2d dispersed within a PVC/DOS matrix with appropriate additives. A sheep model was used for in vivo testing. Arteriovenous grafts connecting the common carotid artery to the ipsilateral external jugular vein were surgically implanted in subcutaneous tunnel in adult sheep. Over a 3-week period, duplex ultrasound and clinical examination were performed to assess graft patency. Grafts were removed at 21 days and underwent gross and histological evaluation. […] In addition, histological studies, using appropriate stains to highlight different regions, confirm the thrombus adherent at the luminal surface and red blood cell infiltration into upper layers of the control grafts (FIG. 11A).

[2] = Thermal gravimetric analysis under nitrogen (thermal stability of diazeniumdiolates); format: physicochemical; details: nitrogen atmosphere

With `CCCCNCCCCCCN(CCCC)/[N+]([O-])=N/O` [Compound 2d, (Z)-1-{N-Butyl-N-[6-(N-butylammoniohexyl)amino]}-diazen-1-ium-1,2-diolate] the “change of chromoionophore peaks with exposure time, films containing KTpClPB” value [1] was “the intensity of the protonated peak remains constant”, the “change of chromoionophore peaks with exposure time, films without KTpClPB” value [1] was “an increase in the absorbance of the deprotonated peak and a decrease in the protonated peak” and the graft patency (adult sheep; duplex ultrasound and clinical examination, n=2) was “patent at 21 days”. For the same molecule, the “mean luminal thrombus-free surface area” value (adult sheep; grafts coated with donor in PVC/DOS matrix, removed at 21 days, n=2) was 95%, the “histological evaluation of grafts” value (adult sheep; grafts removed at 21 days) was “minimal thrombus formation and red blood cell infiltration” and the “gross evaluation of thrombus formation on grafts” value (adult sheep; grafts removed at 21 days, vs control grafts) was “greatly reduced degree of thrombus formation”. For the same molecule, the “TNO loss (stable up to)” value [2] was 104 °C.

From US20110117164A1, “Use of Additive Sites to Control Nitric Oxide Release from Nitric Oxide Donors Contained within Polymers” (priority 2004, published 2011)
